Substitutions are numbered along the chain they refer to. Read-outs that look alike come from different tables or passages of the source.
Legend:
ALK2/ACVR1 = biological target: T1, ALK2/ACVR1 (Homo sapiens, UniProt Q04771); experiment: Kinase assay (33P-ATP filter-binding), ALK2; type: biochemical; settings: 20 mM; read-out: Kinase Selectivity ALK2/ACVR1 (20 mM)
T1 sequence (Q04771 21-509): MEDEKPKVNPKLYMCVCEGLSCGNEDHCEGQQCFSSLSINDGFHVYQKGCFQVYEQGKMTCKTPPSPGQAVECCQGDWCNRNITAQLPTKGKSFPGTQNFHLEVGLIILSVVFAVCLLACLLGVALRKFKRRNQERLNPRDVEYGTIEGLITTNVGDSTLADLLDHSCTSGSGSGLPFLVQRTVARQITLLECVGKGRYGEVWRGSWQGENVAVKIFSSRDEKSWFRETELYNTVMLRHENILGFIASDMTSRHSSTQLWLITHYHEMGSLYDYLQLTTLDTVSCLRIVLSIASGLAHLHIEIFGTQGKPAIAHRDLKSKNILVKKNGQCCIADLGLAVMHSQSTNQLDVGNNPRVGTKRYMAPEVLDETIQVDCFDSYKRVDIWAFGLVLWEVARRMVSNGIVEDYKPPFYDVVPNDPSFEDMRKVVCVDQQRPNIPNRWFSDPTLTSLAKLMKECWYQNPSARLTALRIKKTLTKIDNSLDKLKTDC
Method in brief: (§1)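 Activity was read by spotting reactions onto P81 ion exchange paper (filter binding) after 2 hours at room temperature with 33P-ATP. Kinase and substrate sat in Hepes pH 7.5 buffer with MgCl2, EGTA, Brij35, BSA, Na3VO4, DTT and 1% DMSO; compound was added 20 minutes before ATP.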

ALK2 (Q207D) = biological target: T2, ALK2 (Q207D) (Homo sapiens, UniProt Q04771, Q207D); experiment: Kinase assay (33P-ATP filter-binding), ALK2 Q207D; type: biochemical; settings: Q207D mutant, 20 mM; read-out: Kinase Selectivity ALK2 (Q207D, 20 mM)
T2 sequence (Q04771 21-509 Q207D): T1 sequence (Q04771 21-509) with Q187D
Method in brief: as §1

[1] = Intrinsic clearance, mouse; type: in vitro ADME; settings: mouse
ALK1/ACVRL1 = ALK1/ACVRL1 (Homo sapiens, UniProt P37023); experiment: Kinase assay (33P-ATP filter-binding), ALK1; type: biochemical; settings: read-out: Kinase Selectivity ALK1/ACVRL1
Sequence of ALK1/ACVRL1 (P37023 22-503): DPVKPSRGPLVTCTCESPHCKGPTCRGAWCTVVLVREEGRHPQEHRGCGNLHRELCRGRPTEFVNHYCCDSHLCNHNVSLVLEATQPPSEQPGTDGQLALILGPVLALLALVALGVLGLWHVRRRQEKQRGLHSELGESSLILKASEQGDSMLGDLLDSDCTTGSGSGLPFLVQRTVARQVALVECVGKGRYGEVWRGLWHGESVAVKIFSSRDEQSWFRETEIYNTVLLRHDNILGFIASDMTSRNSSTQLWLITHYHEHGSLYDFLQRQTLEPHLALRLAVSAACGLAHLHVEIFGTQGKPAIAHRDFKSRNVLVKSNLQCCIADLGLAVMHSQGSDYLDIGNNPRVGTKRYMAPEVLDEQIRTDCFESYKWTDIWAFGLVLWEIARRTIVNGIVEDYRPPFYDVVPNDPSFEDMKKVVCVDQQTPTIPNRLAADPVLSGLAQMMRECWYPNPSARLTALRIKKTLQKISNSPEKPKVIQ
Method in brief: as §1

ALK2 (R206H) = biological target: T3, ALK2 (R206H) (Homo sapiens, UniProt Q04771, R206H); experiment: Kinase assay (33P-ATP filter-binding), ALK2 R206H; type: biochemical; settings: R206H mutant, 20 mM; read-out: Kinase Selectivity ALK2 (R206H, 20 mM)
T3 sequence (Q04771 21-509 R206H): T1 sequence (Q04771 21-509) with R186H
Method in brief: as §1

Protein binding, mouse = type: in vitro ADME
ALK6 = ALK6 (Homo sapiens, UniProt O00238); experiment: Kinase assay (33P-ATP filter-binding), ALK6; type: biochemical; settings: read-out: Kinase Selectivity ALK6
Sequence of ALK6 (O00238 14-502): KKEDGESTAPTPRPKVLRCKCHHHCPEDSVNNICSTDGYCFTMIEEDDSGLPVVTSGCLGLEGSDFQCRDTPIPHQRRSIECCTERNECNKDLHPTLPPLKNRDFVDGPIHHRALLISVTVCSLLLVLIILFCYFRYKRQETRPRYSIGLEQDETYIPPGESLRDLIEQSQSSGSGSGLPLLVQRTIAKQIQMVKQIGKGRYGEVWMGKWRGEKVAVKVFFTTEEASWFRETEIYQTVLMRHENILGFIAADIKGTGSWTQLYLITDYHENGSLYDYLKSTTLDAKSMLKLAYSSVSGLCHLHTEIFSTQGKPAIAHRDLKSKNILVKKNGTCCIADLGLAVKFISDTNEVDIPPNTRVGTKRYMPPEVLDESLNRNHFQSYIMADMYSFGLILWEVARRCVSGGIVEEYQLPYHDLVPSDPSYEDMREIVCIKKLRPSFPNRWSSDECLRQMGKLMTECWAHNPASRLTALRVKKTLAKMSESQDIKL
Procedure: (§2) The kinase assays were carried out briefly as follows. Substrate was prepared in Base Reaction Buffer (20 mM Hepes (pH 7.5), 10 mM MgCl2, 1 mM EGTA, 0.02% Brij35, 0.02 mg/ml BSA, 0.1 mM Na3VO4, 2 mM DTT, 1% DMSO). The indicated kinases was delivered into the substrate solution and allowed to gently mix. Next, the specific compound was delivered in DMSO into the kinase mixture by Acoustic technology (Echo550; nanoliter range), and allowed to incubate for 20 minutes at room temperature. Next, ^33P-ATP was delivered into the reaction mixture to initiate the reaction and allowed to incubate at room temperature. After 2 hours, the reactions were spotted onto P81 ion exchange paper and the kinase activity is detected by the filter-binding method.

TGFbR2 = TGFbR2 (Homo sapiens, UniProt P37173); experiment: Kinase assay (33P-ATP filter-binding), TGFbR2; type: biochemical; settings: read-out: Kinase Selectivity TGFbR2
Sequence of TGFbR2 (P37173 23-567, species assumed): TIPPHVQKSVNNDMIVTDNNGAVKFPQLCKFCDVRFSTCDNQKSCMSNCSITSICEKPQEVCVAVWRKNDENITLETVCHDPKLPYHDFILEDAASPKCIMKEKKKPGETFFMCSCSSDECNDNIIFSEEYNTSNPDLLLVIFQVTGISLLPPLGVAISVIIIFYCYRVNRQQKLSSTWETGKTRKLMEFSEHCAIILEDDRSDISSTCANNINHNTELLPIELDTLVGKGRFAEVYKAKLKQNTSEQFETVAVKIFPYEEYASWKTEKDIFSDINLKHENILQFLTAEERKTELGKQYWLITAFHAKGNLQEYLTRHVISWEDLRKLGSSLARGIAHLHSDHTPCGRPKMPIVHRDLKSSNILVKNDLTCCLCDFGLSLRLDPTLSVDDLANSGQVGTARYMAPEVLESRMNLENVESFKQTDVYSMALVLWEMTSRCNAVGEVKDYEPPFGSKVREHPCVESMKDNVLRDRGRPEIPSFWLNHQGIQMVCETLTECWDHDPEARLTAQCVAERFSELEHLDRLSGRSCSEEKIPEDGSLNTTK
Procedure: as §2

ALK3/BMPR1A = ALK3/BMPR1A (Homo sapiens, UniProt P36894); experiment: Kinase assay (33P-ATP filter-binding), ALK3; type: biochemical; settings: 1 mM; read-out: Kinase Selectivity ALK3/BMPR1A (1 mM)
Sequence of ALK3/BMPR1A (P36894 24-532): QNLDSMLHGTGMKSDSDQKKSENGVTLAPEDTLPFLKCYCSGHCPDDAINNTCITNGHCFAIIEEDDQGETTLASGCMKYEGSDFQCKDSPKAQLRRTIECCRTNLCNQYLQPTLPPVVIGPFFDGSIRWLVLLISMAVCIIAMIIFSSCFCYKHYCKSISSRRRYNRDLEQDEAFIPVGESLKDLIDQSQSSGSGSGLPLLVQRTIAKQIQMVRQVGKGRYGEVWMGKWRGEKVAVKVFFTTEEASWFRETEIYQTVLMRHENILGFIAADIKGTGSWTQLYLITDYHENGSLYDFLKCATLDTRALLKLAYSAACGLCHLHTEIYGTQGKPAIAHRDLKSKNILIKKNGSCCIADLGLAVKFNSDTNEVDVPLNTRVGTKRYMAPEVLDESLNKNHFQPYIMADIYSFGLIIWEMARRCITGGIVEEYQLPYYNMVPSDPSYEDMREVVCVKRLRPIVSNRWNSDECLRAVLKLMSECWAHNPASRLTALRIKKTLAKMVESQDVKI
Method in brief: as §1

Protein binding, human = type: in vitro ADME
[2] = system: BMP-responsive C2C12 mouse myoblast cells stimulated with BMP4; experiment: BMP4 cell assay (Id1 promoter-firefly luciferase reporter); type: cell-based; settings: Mus musculus; C2C12 cells, BMP4 50 ng/mL, overnight
[3] = CL-Hep, value in parentheses, read-out: Intrinsic Clearance Mouse (CL-Hep)
[4] = read-out: Intrinsic Clearance Mouse

SMILES	IC50 (ALK2/ACVR1)	IC50 (ALK2 (Q207D))	CLint scaled [1, 3]	CLint scaled [1, 4]	IC50 (ALK1/ACVRL1)	IC50 (ALK2 (R206H))	Protein Binding (% Free) Mouse (Protein binding, mouse)	IC50 (ALK6)	IC50 (TGFbR2)	IC50 (ALK3/BMPR1A)	Protein Binding (% Free) Human (Protein binding, human)	IC50 [2]
Cc1cc(-c2cnc3cc(-c4ccc(C5COCC(C)N5)cc4)ccn23)c2cc(F)cc(F)c2n1 (stereo not drawn) [Compound 23]	< 5.1 nM	< 5.1 nM	42.9 mL/min/kg	82.2 mL/min/kg	42.8 nM	< 5.1 nM	2.85 % Free	369 nM	560 nM	< 5.1 nM	1.11 % Free	–
Cc1cc(-c2cnc3cc(-c4ccc(C5COC6(CCNC6)CN5)cc4)ccn23)c2cc(F)cc(F)c2n1 (stereo not drawn) [Compound 27]	29.1 nM	219 nM	< 32.9 mL/min/kg	< 49.5 mL/min/kg	907 nM	326 nM	3.9 % Free	429 nM	1870 nM	13.5 nM	4.97 % Free	248 nM
NS(=O)(=O)c1ccc(-c2cnc3cc(-c4ccc(C5CNCCN5)cc4)ccn23)c2ccccc12 (stereo not drawn) [Compound 37]	14.6 nM	5.8 nM	< 31.9 mL/min/kg	< 49.5 mL/min/kg	723 nM	13.2 nM	–	231 nM	2680 nM	20300 nM	11.7 % Free	34.9 nM
c1cnc2nccc(-c3cnc4cc(-c5ccc(C6CNCCN6)cc5)ccn34)c2c1 (stereo not drawn) [Compound 32]	16.5 nM	< 5.1 nM	< 31.9 mL/min/kg	< 49.5 mL/min/kg	197 nM	15.8 nM	33.9 % Free	54.5 nM	4590 nM	< 5.1 nM	42.8 % Free	13.5 nM
c1cc(-c2cnc3cc(-c4ccc(C5CNCCN5)cc4)ccn23)c2cccnc2c1 (stereo not drawn) [Compound 33]	< 5.1 nM	< 5.1 nM	< 31.9 mL/min/kg	< 49.5 mL/min/kg	61.3 nM	< 5.1 nM	8.4 % Free	188 nM	620 nM	82.7 nM	11 % Free	87.7 nM
O=C1CNC(=O)C(c2ccc(-c3ccn4c(-c5cccc6ncccc56)cnc4c3)cc2)N1 (stereo not drawn) [Compound 36]	< 5.1 nM	< 5.1 nM	–	–	84.9 nM	< 5.1 nM	–	188 nM	498 nM	295 nM	–	29.6 nM
Cc1cc(-c2cnc3cc(-c4ccc(C5COC6(CCNCC6)CN5)cc4)ccn23)c2cc(F)cc(F)c2n1 (stereo not drawn) [Compound 16]	< 5.1 nM	6.3 nM	< 32.9 mL/min/kg	< 49.5 mL/min/kg	152 nM	< 5.1 nM	4.7 % Free	188 nM	620 nM	< 5.1 nM	5.61 % Free	87.7 nM

From patent US10745400B2, “Inhibition of BMP signaling, compounds, compositions and uses thereof” (Vanderbilt University, priority 2018, dated 2020)
